One may read the melting point as the temperature, or range, at which the solid turns liquid.

We go through eight molecules from patent US8729102B2, “Bicyclic compound” (Takeda Pharmaceutical Company Limited, priority 2010, dated 2014).

Data set [1] deals with T1, Human ACC2 (ACC2 (Nd), N terminal deleted) (Homo sapiens, UniProt O00763).
T1 construct: made in house; host or cells: SF-9 insect cells (baculovirus)
The experiment in a line: Measurement of ACC2 inhibitory activity (malachite green, recombinant ACC2 (Nd)). The class given is biochemical. Conditions: 10 μM test compound, 20 min preincubation at 30° C., 20 min reaction; for inhibition at 10 µM: read-out: ACC2 inhibitory rate at 10 μM (%). The method, then: The ACC2 inhibitory action of the compound of the present invention was evaluated by the following method.
(1) Cloning of Human ACC2 Gene and Preparation of Recombinant Baculovirus
Human ACC2 gene was cloned by PCR using a human skeletal muscle cDNA library (Clontech) as a template and Primer 1 and Primer 2 shown below. Primer 1 and Primer 2 were prepared by adding SalI, XbaI restriction enzyme recognition sequences based on the information of the base sequence of human ACC2 gene (Genbank Accession U89344).
PCR was performed using Pyrobest DNA polymerase (TAKARA BIO INC.). The obtained PCR product was cloned to pT7 Blue vector (Novagen) and after confirmation of the base sequence, digested with restriction enzymes SalI and XbaI. The obtained DNA fragment was inserted into pFAST-BacHTa (Invitrogen) digested with restriction enzymes Sail and XbaI to give expression plasmid ACC2/pFAST-BacHTa.
A plasmid for expression of ACC2 without a mitochondrial targeting sequence was prepared by PCR using the expression plasmid as a template, and Primer 3 (salI restriction enzyme recognition sequence was added) and Primer 4, which are prepared by reference to the information of human ACC2 gene base sequence (Genbank Accession U89344).
PCR was performed using Pyrobest-DNA polymerase (TAKARA BIO INC.). The obtained PCR product was cloned to pT7 Blue vector (Novagen) and after confirmation of the base sequence, digested with restriction enzymes SalI and Aflil. The obtained DNA fragment was inserted into ACC2/pFAST-BacHTa digested with restriction enzymes SalI and AfilI to give expression plasmid ACC2mito7/pFAST-BacHTa.
Using the expression plasmid ACC2mito7/pFAST-BacHTa and BAC-TO-BAC Baculovirus Expression System (Invitrogen), virus stock BAC-ACC2 of recombinant Baculovirus (N terminal deleted (hereinafter Nd)) was prepared.
(2) Preparation of ACC2 (Nd) Protein
SF-9 cells (Invitrogen) were inoculated to a medium (2 L) for insect cells (Sf-900IISFM medium (Invitrogen) containing 10% fetal bovine serum (Trace), 50 mg/L Gentamicin (Invitrogen), 0.1% Pluronic F-68 (Invitrogen)) at 0.5×10^6 cells/mL, and cultured with shaking in Wave Bioreactor (Wave) at 27° C., 20 rpm, rocking angle 6°, oxygen concentration 30%.
On day 4 of the culture, 3 L of the medium for insect cells was added, the rocking angle was set to 8°, and the cells were further cultured. On day 5 of the culture, 100 mL of recombinant Baculovirus BAC-ACC2 (Nd) was added, 5 L of the medium for insect cells was further added, the rocking angle was set to 11°, and the cells were cultured for 3 days. The culture medium was centrifuged at 1000×g for 10 min to give virus-infected cells. The cells were washed with phosphate buffered saline (Invitrogen) and centrifuged under the same conditions. The obtained cells were cryopreserved at −80° C.
The cryopreserved cells were thawed in ice and suspended in 900 mL of 25 mM HEPES buffer (pH 7.5) containing 10% Glycerol, 0.13 M NaCl, 1 mM EDTA, 25 mM Sodium β-Glycerophosphate and 1 mM Sodium Orthovanadate, and supplemented with Complete Protease Inhibitor (Nippon Boehringer Ingelheim Co., Ltd.). The obtained suspension was homogenized three times in a polytron homogenizer (Kinematica) at 20,000 rpm for 30 sec. The obtained cell disruption solution was clarified by centrifugation at 31000×g for 60 min, and filtered through a 0.45 μm filter. The filtrate was passed through a column packed with 60 mL of Ni-NTA Super Flow Gel (QUIAGEN) at a flow rate of about 5 mL/min. The column was washed with buffer A (50 mM HEPES (pH 7.5) containing 0.3 M NaCl), further washed with buffer A containing 20 mM Imidazole, and eluted with buffer A containing 100 mM Imidazole. The eluate was concentrated with Vivaspin 20 (Vivascience) with a molecular weight cut off of 30K. The obtained concentrate was dialyzed against 50 mM HEPES (pH 7.5) containing 10 mM MgCl2, 2 mM Dithiothreitol, 10 mM Tripotassium Citrate and 0.3 M NaCl. […]

Data set [2] relates to Malonyl-CoA content of femoral muscle. The experiment in a line: Malonyl CoA content measurement in femoral muscle after gavage (LC/MS/MS). The class given is in vivo. Conditions: male F344/Jcl rats, 10 mg/kg by gavage, femoral muscle 2 hours after dosing; Mean ± S.D.; vehicle 1.955 ± 0.496. The method, then:
Male F344/Jcl rats (CLEA Japan, Inc., Tokyo) purchased at 5 weeks of age were acclimated to the rearing environment, and used for an experiment of malonyl CoA content measurement at 10 weeks of age. In the experiment of malonyl CoA content measurement, the body weight was measured in the morning (8:00-11:00) 3 days before administration of a test compound, and the rats were divided into groups free of dispersion in the body weight between administration groups. The test compound was prepared as a 0.5% methyl cellulose (Wako) suspension to a dose of 5 mL/kg, in the afternoon (12:00-17:00) of one day before administration by gavage, and administered by gavage according to the body weight on the day of test compound administration. The vehicle group was administered with a solvent (0.5% methyl cellulose) alone by gavage. […]
A sample homogenate for the malonyl CoA measurement was prepared by disrupting a frozen tissue with a measured weight in a Multi-beads shocker (MB400U, Yasui Kikai Corporation), adding an extract (6% perchloric acid:aqueous di-n-butylammonium acetate solution (IPC-DBAA, 0.5 mol/L, TOKYO CHEMICAL INDUSTRY CO., LTD.)=1000:1, 500 μL) containing an internal standard substance ([^13C3]-malonyl CoA lithium salt (100 pmol/mL, Sigma-Aldrich)), and applying the mixture to the Multi-beads shocker again. […]

T1 sequence (O00763 117-2458 limits assumed, stated change not applied): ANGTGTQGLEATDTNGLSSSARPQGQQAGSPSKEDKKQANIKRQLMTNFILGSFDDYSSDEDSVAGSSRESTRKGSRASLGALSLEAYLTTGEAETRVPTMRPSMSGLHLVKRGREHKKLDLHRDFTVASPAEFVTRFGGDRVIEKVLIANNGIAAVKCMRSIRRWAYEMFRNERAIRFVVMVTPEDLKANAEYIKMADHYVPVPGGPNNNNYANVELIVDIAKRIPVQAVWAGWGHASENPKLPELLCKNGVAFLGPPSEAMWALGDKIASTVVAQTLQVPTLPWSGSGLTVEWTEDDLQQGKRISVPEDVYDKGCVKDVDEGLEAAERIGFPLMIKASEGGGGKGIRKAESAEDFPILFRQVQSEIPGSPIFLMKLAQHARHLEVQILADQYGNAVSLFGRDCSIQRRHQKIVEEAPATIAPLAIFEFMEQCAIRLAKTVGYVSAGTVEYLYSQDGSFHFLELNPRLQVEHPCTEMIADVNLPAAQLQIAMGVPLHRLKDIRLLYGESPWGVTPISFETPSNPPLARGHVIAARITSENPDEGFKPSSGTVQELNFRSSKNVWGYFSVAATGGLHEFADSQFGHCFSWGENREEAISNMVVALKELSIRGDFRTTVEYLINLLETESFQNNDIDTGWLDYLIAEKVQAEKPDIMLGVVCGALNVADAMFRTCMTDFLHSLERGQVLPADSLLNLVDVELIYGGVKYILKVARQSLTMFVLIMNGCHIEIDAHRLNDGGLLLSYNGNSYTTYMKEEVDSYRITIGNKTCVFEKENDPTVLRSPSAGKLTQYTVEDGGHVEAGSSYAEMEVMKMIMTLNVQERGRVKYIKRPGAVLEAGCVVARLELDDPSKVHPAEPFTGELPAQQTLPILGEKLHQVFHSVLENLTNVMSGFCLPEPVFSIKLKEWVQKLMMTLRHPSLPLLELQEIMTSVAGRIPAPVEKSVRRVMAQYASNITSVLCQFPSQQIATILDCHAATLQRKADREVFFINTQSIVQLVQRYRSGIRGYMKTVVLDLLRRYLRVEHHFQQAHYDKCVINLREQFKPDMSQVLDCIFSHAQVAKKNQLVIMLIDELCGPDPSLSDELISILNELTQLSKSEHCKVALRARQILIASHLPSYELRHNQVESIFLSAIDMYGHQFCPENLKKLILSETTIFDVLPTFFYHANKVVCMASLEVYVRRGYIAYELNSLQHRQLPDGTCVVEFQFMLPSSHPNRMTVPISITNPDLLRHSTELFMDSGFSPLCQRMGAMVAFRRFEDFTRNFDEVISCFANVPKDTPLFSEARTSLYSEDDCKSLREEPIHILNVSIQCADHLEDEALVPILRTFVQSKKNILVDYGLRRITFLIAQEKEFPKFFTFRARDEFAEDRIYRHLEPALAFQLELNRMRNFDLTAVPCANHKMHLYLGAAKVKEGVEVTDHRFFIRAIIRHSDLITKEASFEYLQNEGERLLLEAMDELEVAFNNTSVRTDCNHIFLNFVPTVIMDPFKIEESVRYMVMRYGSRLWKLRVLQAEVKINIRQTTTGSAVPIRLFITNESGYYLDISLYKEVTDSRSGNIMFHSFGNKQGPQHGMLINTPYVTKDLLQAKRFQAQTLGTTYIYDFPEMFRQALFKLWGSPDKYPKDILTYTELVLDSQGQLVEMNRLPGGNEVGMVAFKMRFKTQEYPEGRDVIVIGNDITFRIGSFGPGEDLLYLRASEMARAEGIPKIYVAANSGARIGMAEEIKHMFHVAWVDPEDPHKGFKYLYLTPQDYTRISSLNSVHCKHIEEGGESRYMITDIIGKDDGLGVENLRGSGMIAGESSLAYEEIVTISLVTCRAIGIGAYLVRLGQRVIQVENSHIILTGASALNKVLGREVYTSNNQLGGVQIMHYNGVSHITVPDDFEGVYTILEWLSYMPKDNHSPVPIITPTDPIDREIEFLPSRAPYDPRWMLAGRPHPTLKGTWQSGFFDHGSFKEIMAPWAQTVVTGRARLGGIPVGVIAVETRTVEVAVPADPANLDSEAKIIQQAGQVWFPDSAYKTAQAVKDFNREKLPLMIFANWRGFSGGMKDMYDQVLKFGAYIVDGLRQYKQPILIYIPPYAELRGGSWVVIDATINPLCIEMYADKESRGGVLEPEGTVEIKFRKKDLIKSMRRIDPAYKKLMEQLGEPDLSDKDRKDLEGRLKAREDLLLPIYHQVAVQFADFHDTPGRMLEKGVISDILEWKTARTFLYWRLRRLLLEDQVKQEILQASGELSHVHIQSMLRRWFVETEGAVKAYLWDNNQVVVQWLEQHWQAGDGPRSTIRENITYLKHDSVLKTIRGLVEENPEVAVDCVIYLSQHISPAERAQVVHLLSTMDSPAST

As to `CCOc1ccc2nc(-c3ccc(OC[C@H](C)NC(C)=O)cn3)oc2c1` [Example 28, N-[(1S)-2-{[6-(6-ethoxy-1,3-benzoxazol-2-yl)pyridin-3-yl]oxy}-1-methylethyl]acetamide], the inhibition at 10 µM in data set [1] came out at 83%. In addition, the “malonyl-CoA (nmol/g-tissue), Malonyl-CoA content of femoral muscle at 2 hours after dosing” value in data set [2] was 0.663 ± 0.119 nmol/g-tissue.
Regarding `CC(=O)N[C@@H](C)COc1ccc(-c2nc3ccc(OCC4CC4)cc3o2)nc1` [Example 1, N-[(1S)-2-({6-[6-(cyclopropylmethoxy)-1,3-benzoxazol-2-yl]pyridin-3-yl}oxy)-1-methylethyl]acetamide], the melting point fell in the range of 179 to 180 °C. Also, the inhibition at 10 µM in data set [1] came out at 101%.
The matching figures for `CC(=O)N[C@@H](C)COc1cc(-c2nc3cc(OCC4CC4)ccc3o2)on1` [Example 2, N-[(1S)-2-({5-[5-(cyclopropylmethoxy)-1,3-benzoxazol-2-yl]isoxazol-3-yl}oxy)-1-methylethyl]acetamide]: 156 to 157 °C and 92%.
Molecule `CC(=O)N[C@@H](C)COc1cnc(-c2nc3ccc(OCC4CC4)cc3o2)c(F)c1` [Example 6, N-[(1S)-2-({6-[6-(cyclopropylmethoxy)-1,3-benzoxazol-2-yl]-5-fluoropyridin-3-yl}oxy)-1-methylethyl]acetamide] came in with a melting point of 158 to 159 °C. In addition, the inhibition at 10 µM in data set [1] is 95%. Besides, the “malonyl-CoA (nmol/g-tissue), Malonyl-CoA content of femoral muscle at 2 hours after dosing” value in data set [2] is 0.513 ± 0.048 nmol/g-tissue.
As for `C[C@@H](COc1cnc(-c2nc3ccc(OCC4CC4(F)F)cc3o2)c(F)c1)NC(N)=O` (stereo partly drawn) [Example 112, Diastereomer of 1-{(1S)-2-[(6-{6-[(2,2-difluorocyclopropyl)methoxy]-1,3-benzoxazol-2-yl}-5-fluoropyridin-3-yl)oxy]-1-methylethyl}urea (retention time: long)], the “ACC2 inhibitory rate at 10 μM (%)” value in data set [1] is 100%.
For `CC(=O)N[C@@H](C)COc1ccc(-c2nc3ccc(OCC(C)(F)F)cc3o2)nc1` [Example 30], the inhibition at 10 µM in data set [1] is 100%.
For the molecule `C[C@@H](COc1ccc(-n2cc3ccc(OCC4CC4)cc3n2)cc1)NC(=O)N(C)C` [Example 63, 3-[(1S)-2-{4-[6-(cyclopropylmethoxy)-2H-indazol-2-yl]phenoxy}-1-methylethyl]-1,1-dimethylurea], the inhibition at 10 µM in data set [1] is 93%.
For the molecule `CC(=O)N[C@@H](C)COc1cnc(-c2nc3ccc(OCC4CC4(F)F)cc3o2)c(F)c1` (stereo partly drawn) [Example 110, Diastereomer of N-{(1S)-2-[(6-{6-[(2,2-difluorocyclopropyl)methoxy]-1,3-benzoxazol-2-yl}-5-fluoropyridin-3-yl)oxy]-1-methylethyl}acetamide (retention time: long)], the “ACC2 inhibitory rate at 10 μM (%)” value in data set [1] was found to be 91%.
